Data published in US6605424B1, “Method of detecting inhibitors of agonist-specific desensitization” (Duke University, priority 1989, dated 2003).
“And” between values parts separate entries of the source, which are not always exact repeats. Identical values can stand only once. Like-named read-outs stand apart in the source and are kept apart here. One block for each compound: values may come before it. Residues, ends and D or L forms follow the SMILES beside them. No end group written: not given here.

Tests used:
βAR kinase [1] = molecular target: T1, βAR kinase (Bos taurus, UniProt P21146); experiment: Inhibition of β2AR phosphorylation by βAR kinase by synthetic peptides (Example III); type: biochemical, bovine; details: for inhibition of β2AR phosphorylation: tested at ˜0.5 mM
T1 construct: βAR kinase was purified from bovine cerebral cortex; from tissue; host or cells: bovine cerebral cortex
T1 sequence (P21146 1-689): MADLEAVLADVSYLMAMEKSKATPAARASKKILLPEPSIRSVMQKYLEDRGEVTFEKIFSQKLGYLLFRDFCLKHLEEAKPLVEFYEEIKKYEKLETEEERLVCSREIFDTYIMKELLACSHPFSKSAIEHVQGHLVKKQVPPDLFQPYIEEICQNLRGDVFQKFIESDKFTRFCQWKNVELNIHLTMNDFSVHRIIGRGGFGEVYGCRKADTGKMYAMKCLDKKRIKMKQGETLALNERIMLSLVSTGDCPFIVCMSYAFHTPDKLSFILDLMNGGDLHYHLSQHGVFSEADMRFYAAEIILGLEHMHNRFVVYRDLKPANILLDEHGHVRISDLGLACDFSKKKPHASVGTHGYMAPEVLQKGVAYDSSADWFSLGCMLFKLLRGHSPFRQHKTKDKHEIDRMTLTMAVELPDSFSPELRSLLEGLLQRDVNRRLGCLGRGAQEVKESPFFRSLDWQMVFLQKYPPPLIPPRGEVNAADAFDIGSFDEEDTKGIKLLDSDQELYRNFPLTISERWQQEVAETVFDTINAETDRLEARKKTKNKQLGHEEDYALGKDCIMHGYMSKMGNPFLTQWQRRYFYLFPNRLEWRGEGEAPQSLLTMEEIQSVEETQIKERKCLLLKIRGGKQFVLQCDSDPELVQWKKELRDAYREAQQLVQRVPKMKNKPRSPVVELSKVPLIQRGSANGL
Method: FIG. 13. Inhibition of β2AR phosphorylation by synthetic peptides. Reconstituted β2AR (˜0.4 pmol) was incubated for 30 min at 30° with purified βAR kinase (˜30 ng) in the presence of 50 mM Tris-HCl, pH 7.5, 2 mM EDTA, 10 mM NaCl, 5 mM MgCl2, 5 mM sodium phosphate, 50 μM (−)-isoproterenol and 0.10 mM [γ^32P]ATP (2.0 cpm/fmol). Synthetic β2AR peptides were varied from 0 to 1 mM and included CI (Δ), CII (▴), CIII-2 (◯) and CT-1 (●). Reactions were stopped by the addition of […]. ^32P-labeled receptor was determined by cutting and counting the dried gel following autoradiography.
The β2-adrenergic receptor from hamster lung was purified to apparent homogeneity by sequential affinity and high performance liquid chromatography as described (Benovic et al (1984) Biochemistry 23:4510-4518). The purified receptor was reinserted into phosphatidylcholine vesicles as previously described (Cerione et al (1983) Nature 306:562-566). The protein-lipid pellets were resuspended in 20 mM Tris-HCl, pH 7.2, 2 mM EDTA and used as a substrate for the βAR kinase.
(§1) βAR kinase was purified from bovine cerebral cortex by modification of a previously described procedure (Benovic et al (1987) J. Biol. Chem. 262:9026-9032). Briefly, 250 g of bovine cortex was homogenized and the resulting high speed supernatant fraction was precipitated with 13-26% ammonium sulfate. This material was initially chromatographed on an Ultrogel AcA34 column equilibrated with 5 mM Tris-HCl, pH 7.5, 2 mM EDTA, 5 μg/ml leupeptin, 5 μg/ml pepstatin, 15 μg/ml benzamidine, 0.2 mM phenylmethyl sulfonyl fluoride (buffer A). The peak activity was diluted 1:1 with buffer A containing 0.02% triton X-100 and applied to a DEAE Sephacel column. Elution was accomplished with a 0-80 mM NaCl gradient in buffer A containing triton X-100. The peak activity was then applied directly to a CM Fractogel column and eluted with a 0-100 mM NaCl gradient in buffer A containing triton X-100. The purified kinase was stored at 4° C.
The inhibition of substrate phosphorylation by βAR kinase in the presence of synthetic peptides was assayed as follows. Reconstituted βAR (0.2-1 pmol/inclubation) was incubated with βAR kinase (10-30 ng) in a buffer containing 50 mM Tris-HCl, pH 7.5, 2 mM EDTA, 10 mM NaCl, 5 mM MgCl2, 5 mM sodium phosphate, 50 μM (−)-isoproterenol, 0.10 mM [γ-^32P]ATP (1-3 cpm/fmol) at 30° C. for 30 min. Synthetic β2AR peptides were varied in concentration from 0 to 2 mM. Reactions were quenched by the addition of SDS sample buffer followed by gel electrophoresis. In some experiments urea treated rod outer segments (Wilden et al (1982) Biochemistry 21:3014-3022; Shichi et al (1978) J. Biol. Chem. 253:7040-7046) were used as the substrate for βAR kinase. To further define the specificity of the peptide inhibition, phosvitin, casein (see Example I) and the synthetic peptides CT-2 and CT-3 were used as substrates for βAR kinase.
SDS polyacrylamide gel electrophoresis was performed by the method of Laemmli (Nature (1970) 227:[…]) using 10 or 15% homogeneous slab gels. SDS sample buffer contained 8% SDS, 10% glycerol, 5% β-mercaptoethanol, 25 mM Tris-HCl, pH 6.5 and 0.003% bromphenol blue. SDS urea polyacrylamide gel electrophoresis was carried out using 6.5 M urea, 0.1% SDS, 100 mM H3PO4, pH 6.8 with Tris-HCl and 9% acrylamide (Swank et al (1971) Anal. Biochem. 39:462). SDS urea sample buffer contained 1% SDS, 8M urea, 10 mM H3PO4, pH 6.8 with Tris-HCl, 1% β-mercaptoethanol and 0.003% bromphenol blue.

βAR kinase [2] = molecular target: T1, βAR kinase; experiment: Phosphorylation of β2AR and synthetic β2AR peptides by βAR kinase (substrate kinetics); type: biochemical, bovine; details: for phosphorylation by βAR kinase: FIG. 10; for Ratio (Vmax/Km relative to β2AR + ISO): substrate of βAR kinase
Method: FIG. 11. Kinetic parameters of the βAR kinase for β2AR. Reconstituted β2AR (0.05-0.3 μM) was incubated for 15 min at 30° C. with purified βAR kinase (˜30 ng) in the presence (◯) or absence (●) of 50 μM (−)-isoproterenol. Reactions were stopped by the addition of SDS sample buffer before electrophoresis on a 10% SDS polyacrylamide gel. ^32P-labeled receptor was determined by cutting and counting the dried gel following […] autoradiography.
FIG. 12. Kinetic parameters of the βAR kinase for synthetic peptides CT-2 and CT-3. The synthetic β2AR peptides CT-2 (0.6-3.3 mM;Δ) and CT-3 (0.6-4.3 mM; ▴) were incubated for 60 min at 30° C. with purified βAR kinase (˜30 ng). Reactions were stopped by the addition of SDS urea sample buffer before electrophoresis on a 9% SDS urea polyacrylamide gel. ^32P-labeled peptide was determined by cutting and counting the gel following autoradiography.
as §1
Phosphorylation of βAR was accomplished by incubating reconstituted βAR (0.5-5 pmol/incubation) with βAR kinase (10-50 ng) in a buffer containing 20 mM Tris-HCl, pH 7.5, 2 mM EDTA, 10 mM NaCl, 5 mM MgCl2, 5 mM sodium phosphate, 0.5 mM ascorbic acid, 0.15 mM [γ-^32P]ATP (1-5 cpm/fmol) at 30° C. for the indicated time (see Figures indicated below and corresponding description). Some incubations also contained 50 μM (−)-isoproterenol. Incubations were stopped by the addition of 50 μl of SDS sample buffer followed by electrophoresis on 10% homogeneous polyacrylamide gels. Phosphorylated βAR was visualized by autoradiography and the corresponding bands were excised and counted to determine the pmol of phosphate incorporated.
Synthetic βAR peptides were phosphorylated as follows by βAR kinase. […] Following autoradiography the phosphorylated peptides were excised and counted to determine the amount of phosphate incorporated. […]

βAR kinase [3] = molecular target: T1, βAR kinase; experiment: Phosphorylation of purified reconstituted β2ARs by purified βAR kinase (Example II); type: biochemical, bovine; details: 100 μM
Method: FIG. 7. […] (Inset) Relevant section of a representative autoradiogram. Data are means±SEM of three independent experiments. […] Desensitization was measured as the percent loss of stimulation by 10 μM (−)-isoproterenol of adenylyl cyclase activity in membranes. […] Data are means±SEM of four independent experiments.
Purified β2ARs were inserted into phosphatidylcholine vesicles by chromatography on Extracti-gel, followed by polyethylene glycol treatment and centrifugation at 280,000×g for 90 min (Cerione et al (1984) Biochemistry 23:4519-4525). Phosphorylation of the reconstituted receptors by purified βAR kinase was done in the presence of 50 μM (−)-isoproterenol as described (Benovic et al (1987) J. Biol. Chem. 262:9026-9032). Subsequently, the samples were subjected to sodium dodecyl sulfate polyacrylamide gel electrophoresis on 10% gels (Laemmli (1970) Nature 227:680-685). The phosphorylated β2ARs were visualized by autoradiography, and the corresponding bands were cut out and their content of ^32P quantified.

[4] = test system: β2ARs in permeabilized A431 cells; experiment: Desensitization of β2ARs in permeabilized A431 cells; type: cell-based, human; details: 100 μM
Method: Permeabilization of cells was accomplished as follows. Human epidermoid carcinoma A431 cells were grown to about 95% confluence in Dulbecco's modified Eagle's medium supplemented with 10% fetal calf serum. Cells were harvested with collagenase, washed three times with calcium-free phosphate-buffered saline (PBS), then washed twice in 150 mM potassium glutamate/10 mM Hepes/5 mM EGTA/7 mM MgCl2, pH 7.1 (KG buffer), and finally resuspended in KG buffer supplemented with 5 mM glucose and 2 mM ATP (KG-A buffer) at a density of 4×10^7 cells per ml.
At 4×10^7 cells per ml, about 0.015% digitonin was necessary to achieve permeabilization of >95% cells as assessed by staining with trypan blue. In all experiments, digitonin was added stepwise until >95% of the cells were trypan blue positive.

[5] = β2AR as substrate, read-out: IC50 (μM), first intracellular loop peptides as inhibitors of βAR kinase
[6] = hamster β2AR peptides, ND = no significant inhibition at ˜500 μM, read-out: IC50 (μM), inhibition of β2AR phosphorylation by βAR kinase

Compound: CC[C@H](C)[C@H](NC(=O)[C@H](C)NC(=O)[C@H](CCCCN)NC(=O)[C@H](CCC(N)=O)NC(=O)[C@H](Cc1c[nH]cn1)NC(=O)[C@@H](N)[C@@H](C)O)C(=O)N[C@@H](CC(=O)O)C(=O)N[C@@H](CS)C(=O)N[C@@H](Cc1ccc(O)cc1)C(=O)N[C@@H](Cc1c[nH]cn1)C(=O)N[C@@H](CCCCN)C(=O)N[C@@H](CCC(=O)O)C(=O)N[C@H](C(=O)N[C@@H](CS)C(=O)O)[C@@H](C)O [EII (177-190)] (H-THQKAIDCYHKETC-OH; N-terminus and C-terminus assumed)
inhibition of β2AR phosphorylation (βAR kinase [1]): do not inhibit

Compound: AVFTSRALKAPQNLF [α2AR]
IC50 (βAR kinase [1]; [5]): > 1000 µM

Compound: GYSSNSNGKTDYMGEASGCQLGQEKESER [CT-2 (353-381)]
IC50 (βAR kinase [1]; [6]): 142 µM
phosphorylation by βAR kinase (βAR kinase [2]): are phosphorylated by βAR kinase
Ratio (Vmax/Km relative to β2AR + ISO) (βAR kinase [2]): 2.3 × 10^−6

Compound: QGTVPSLSLDSQGRNCSTNDSPL [CT-3 (396-418)]
inhibition of β2AR phosphorylation (βAR kinase [1]): do not inhibit
phosphorylation by βAR kinase (βAR kinase [2]): are phosphorylated by βAR kinase
Ratio (Vmax/Km relative to β2AR + ISO) (βAR kinase [2]): 1.3 × 10^−6

Compound: AIAKTPRLQTLTNLF [β1AR]
IC50 (βAR kinase [1]; [5]): 700 µM

Compound: KMWNFGNFWC [EI (97-106)]
IC50 (βAR kinase [1]; [6]): 300 µM

Compound: VTVQHKKLRTPLNYI [Rhodopsin]
IC50 (βAR kinase [1]; [5]): > 1000 µM

Compound: SHVPDHDVTEERDEAW [NT (17-32)]
inhibition of β2AR phosphorylation (βAR kinase [1]): do not inhibit

Continued, in another order:

IC50 (βAR kinase [1]; [5]): 280 µM
Compound: AIAKFQRLQTVTNYF [β2AR (57-71, E → Q), AIAKFORLQTVTNYF]

IC50 (βAR kinase [1]; [6]): ~40 µM and 40 µM
IC50 (βAR kinase [1]; [5]): 40 µM
Compound: TAIAKFERLQTVTNYFITS [β2AR (56-74)]

IC50 (βAR kinase [1]; [5]): 88 µM
Compound: AIAAFEALQTVTNYF [β2AR (57-71, K → A, R → A)]

inhibition at 100 µM (βAR kinase [3]): 0%
Compound: AKFERLQTVTN [β2AR-(59-69)]
Inhibition of Desensitization, % [4]: 3 ± 12%

IC50 (βAR kinase [1]; [5]): 43 µM
Compound: AIAKFERAQTVTAYF [β2AR (57-71, L → A, N → A)]

IC50 (βAR kinase [1]; [5]): 2600 µM
Compound: KFERLQT [β2AR (60-66), KFERLQT]
